Several values for one entry are separate records, joined by “and”; a condition that tells them apart may be missing. Equal entries are not always repeated.
Experiments:
[1] = system: antennectomized male German cockroaches; assay: Choice test arena behavioral assay of antennectomized male cockroaches; format: in vivo, Blattella germanica; conditions: Annectomized male cockroaches; 1600 μg/cm^2
Procedure: Testing Procedure. Male cockroaches were antennectomized by using a razor blade to remove the antennae as close to the head as possible. The cockroaches were allowed to recover from the procedure for 24 hours before being exposed to the test compounds in the bioassay described in Example 1. Results.

[2] = system: German cockroach, Blattella germanica; assay: Choice-test arena bioassay (contact irritancy), German cockroach, Example 6; format: in vivo; conditions: 300-second period
Procedure: (§1) A choice-test arena was used to assess irritancy of test solutions to two common household insect pests, the German cockroach (Blattella germanica) and the house fly (Musca domestica). Catnip essential oil obtained by steam distillation of catnip obtained from the same source as described in the above examples, and the two major components of its essential oil, Z,E-nepetalactone and E,Z-nepetalactone (isolated from the essential oil by preparative TLC), were evaluated for behavioral effects of contact irritancy to the German cockroach. The TLC was performed as described in McElvain, S. M. et al., J. Am. Chem. Soc., 1941, 63, 1558-1563. Catnip essential oil and its major constituent Z,E-nepetalactone were tested against the house fly. N,N-diethyl-m-toluamide (DEET) (Aldrich, St. Louis, Mo.) served as a positive control for the choice-test arena assay and as a point of comparison for measuring insect behavioral effects that result from current commercial insect repellents. Test solutions ranging from 10% to 0.1% (vol/vol) active ingredient (a.i.) were made up in acetone and then delivered on to a filter paper for solvent evaporation. […] Choice-test are for German cockroaches and house flies were constructed from plastic Petri dishes. One-half of a 12.5-cm dia. filter paper was treated with 1 ml test solution, and the other was treated with 1 ml of only solvent (control). Both halves of the filter paper were placed in the choice-test arena. Position of the treated filter paper was randomized using a random-number table.
(§2) Individual German cockroaches or house flies were placed in each choice-test arena through a centered hole in the lid of the Petri dish and evaluated for a 300-second period. The amount of time the insect spent on the treated and untreated filter papers were recorded and used to calculate a percentage repellency value: Percentage Repellency=((Time on Untreated-Time on Treated)/300)×100
(§3) Ten replicates of each treatment solution were tested for both German cockroaches and house flies. Details of this assay design and some results have previously been described.

[3] = system: German cockroach (Blattella germanica); assay: Choice test arena repellency bioassay, adult male German cockroach, 300-second test; format: in vivo; conditions: for Mean Treated / Mean Untreated: 300-second test; for % repellency: (untreated − treated/300)*100
Procedure: Test Procedure. Repellency bioassays were conducted to assess the repellent properties of compositions containing catnip steam distillate (nepetalactone), Z,E-nepetalactone, E,Z-nepetalactone and DEET against cockroaches. Certified acetone and certified hexane were also tested in order to evaluate solvent effects. (DEET was dissolved in acetone, because DEET is insoluble in hexane. The tested compounds were dissolved in hexane because hexane was the solvent used to extract these compounds from the distillate). One Whatman 125-mm round filter paper was cut in half. One side was treated with one (1) ml of the test compound and the other side was treated with one (1) ml of solvent. The papers were allowed to dry in a fume hood for approximately two (2) minutes before being placed in a 150-mm Petri dish arena. The relative position of the treated side (i.e., to the right or left) of the dish was randomized using a random number table. […] The hole was stopped using a small piece of tape to prevent the insect from escaping. One adult male German cockroach (Blattella germanica) was selected from the colony and dropped into the pre-formed hole in the Petri dish lid. […] Ten (10) replications were performed for each test compound. Results. Using mean values and their related Standard Error of the Mean values (SEM), repellency of the selected samples was determined as shown in Table 2. Significance due to concentration was determined using ANOVA. […] Comparisons between test compounds were made using a two-tailed paired t-test (“paired t-test”) which indicates “differences” as is known in the art and shown in Table 4 (as compared with a “one-tailed” test, which indicates “greater or less than”). Testing Procedure. The same procedure described in Example 1 was used.

[4] = system: house fly, Musca domestica; assay: Choice-test arena bioassay (contact irritancy), house fly; format: in vivo; conditions: for Percentage Repellency: 300-second period
Procedure: as §1, §2, §3

female German cockroach = assay: Choice test arena repellency, female German cockroach; format: in vivo, Blattella germanica; design: key: seconds spent on the side during a 300-second period; conditions: 10% by volume (1600 μg/cm^2) vs. acetone
Procedure: One Whatman 125-mm round filter paper was cut in half. One side was treated with one (1) ml of the test compound and the other side was treated with one (1) ml of solvent. The papers were allowed to dry in a fume hood for approximately two (2) minutes before being placed in a 150-mm Petri dish arena. The relative position of the treated side (i.e., to the right or left) of the dish was randomized using a random number table. […] The hole was stopped using a small piece of tape to prevent the insect from escaping. One adult male German cockroach (Blattella germanica) was selected from the colony and dropped into the pre-formed hole in the Petri dish lid. Immediately after introduction of the cockroach, the number of seconds the cockroach spent on the treated or untreated side during a 300-second (five (5) minute) period was recorded with two different (2) stopwatches. Ten (10) replications were performed for each test compound.
Testing methods and materials. In this experiment, female German cockroaches were tested in the same manner described in Example 1 against the steam distillates of catnip and the Osage orange. Testing using the commercial repellent, DEET, was also performed for comparison. It is known that male cockroaches are generally more sensitive to repellents, such as DEET, than female cockroaches.

[5] = 0.1% test solution vs solvent-treated half, male
[6] = 0.5% test solution vs solvent-treated half, male
[7] = 1% test solution vs solvent-treated half, male
[8] = 5% test solution vs solvent-treated half, male
[9] = 10% test solution vs solvent-treated half, male

With CCN(CC)C(=O)c1cccc(C)c1 [DEET, N,N-diethyl-3-methylbenzamide, reference compound] the “Mean seconds on treated side ± SEM” value [1] was 148 ± 17.1 s, the “Mean seconds on untreated side” value [1] was 154 ± 17.2 s and the “Percentage Repellency ± SEM” value ([2]; application rate 80 μg/cm^2) was 15.5 ± 5.4a %. For the same molecule, the “Percentage Repellency ± SEM” value ([2]; application rate 160 μg/cm^2) was 20.4 ± 9.2a %, the “Percentage Repellency ± SEM” value ([2]; application rate 800 μg/cm^2) was 25.8 ± 9.5a % and the “Percentage Repellency ± SEM” value ([2]; application rate 1.60 mg/cm^2) was 58.3 ± 10.5b %. For the same molecule, the “Mean Treated” value [3, 5] was 129 s, the “Mean Untreated” value [3, 5] was 175 s and the “Mean Treated” value [3, 6] was 128 s. The “Mean Untreated” value [3, 6] was 175 s, the “Mean Treated” value [3, 7] was 120 s and the “Mean Untreated” value [3, 7] was 181 s. For the same molecule, the “Mean Treated” value [3, 8] was 113 s, the “Mean Untreated” value [3, 8] was 190 s and the “Mean Treated” value [3, 9] was 63 s and 63.4 s. The “Mean Untreated” value [3, 9] was 238 s, the “Mean seconds on treated side ± SEM” value ([3]; Non-antennectomized male cockroaches, 1600 μg/cm^2) was 63.4 ± 15.9 s and the “% repellency” value ([3]; dose 16 μg/cm^2) was 15%. The “Mean seconds on treated side ± SEM” value ([3]; dose 16 μg/cm^2, male B. germanica, in 300 seconds) was 129 ± 9.0 a seconds, the “% repellency” value ([3]; dose 80 μg/cm^2) was 16% and the “Mean seconds on treated side ± SEM” value ([3]; dose 80 μg/cm^2, male B. germanica, in 300 seconds) was 128 ± 9.7 a seconds. For the same molecule, the “% repellency” value ([3]; dose 160 μg/cm^2) was 20%, the “Mean seconds on treated side ± SEM” value ([3]; dose 160 μg/cm^2, male B. germanica, in 300 seconds) was 120 ± 13.8 a seconds and the “% repellency” value ([3]; dose 800 μg/cm^2) was 26%. For the same molecule, the “Mean seconds on treated side ± SEM” value ([3]; dose 800 μg/cm^2, male B. germanica, in 300 seconds) was 113 ± 14.5 a seconds, the “% repellency” value ([3]; dose 1600 μg/cm^2) was 58% and the “Mean seconds on treated side ± SEM” value ([3]; dose 1600 μg/cm^2, male B. germanica, in 300 seconds) was 63.4 ± 15.9 b seconds. For the same molecule, the “higher percentage repellency values (text summary of Table 15)” value ([4]; across application rates tested) was 39%, the “Percentage Repellency” value ([4]; application rate 80 μg/cm^2) was 38.7% and the “Percentage Repellency” value ([4]; application rate 160 μg/cm^2) was 19.3%. For the same molecule, the “Percentage Repellency” value ([4]; application rate 800 μg/cm^2) was 20.7%, the “treated, mean of 10 trials” value (female German cockroach) was 144 and the “untreated, mean of 10 trials” value (female German cockroach) was 156.9. For the same molecule, the “treated (time on treated side), single trials 1-10” value (female German cockroach; 300-second test as Example 1, in s (unit assumed)) was 99 and 166 and 116 and 181 and 157 and 146 and 137 and 150.

C=CC1(C)CCC(C(C)(C)O)CC1C(=C)C (stereo not shown) [Elemol] was tested, and the “Mean Treated” value ([3]; amount used 1% solution) was 107 s, the “Mean Untreated” value ([3]; amount used 1% solution) was 196 s and the “% repellency” value ([3]; amount used 1% solution) was 30%.

— patent publication US7939091B2, “Biorational repellents obtained from terpenoids for use against arthropods” (Iowa State University Research Foundation, Inc., priority 1999, dated 2011)
